From patent US5190741A, “Agents for diagnosing and treating melanomas, aromatic halogenated derivatives usable as such agents and their preparation” (Institut National de la Sante et de la Recherche Medicale …, priority 1989, dated 1993)
Read-outs that look alike come from different tables or passages of the source.

Experiment: Tissue distribution in Swiss nu/nu SSCUP mice bearing Dau
Format: in vivo, human
Conditions: mouse, iv, 3 umol/animal
Experimental: The study of the tissue distribution of the ^125 I labelled compounds was performed in mice bearing grafted melanomas (cf. autoradiograms above). […] The animals are sacrificed at different time intervals of 1 to 24 hours after the injection. The blood is collected and the principal organs are excised. Aliquots are weighed and the radioactivity of the samples is measured in a […] 1191 counter (analytic tracer). The counting yield for iodine 125 is 60%. The results are expressed: as a percentage of the injected dose bound per g of tissue (% ID/g); in the form of the ratios [formula] This ratio reflects more precisely the selectivity of a molecule for an organ (tables 2, 4, 6, 8, 10 and 12).

[1] = intestine, read-out: intestine % ID/g
[2] = kidney, read-out: kidney % ID/g
[3] = muscle, read-out: muscle % ID/g
[4] = pancreas, read-out: pancreas % ID/g
[5] = plasma, read-out: plasma % ID/g
[6] = spleen, read-out: spleen % ID/g
[7] = stomach, read-out: stomach % ID/g
[8] = submaxillary glands, read-out: submaxillary glands % ID/g

CCNCCNC(=O)c1ccc(I)cc1 [Derivative B, N-(2-ethylaminoethyl) 4-iodo benzamide]
tissue uptake at 1 h (blood, read-out: blood % ID/g): 0.89 %ID/g
tissue uptake at 2 h (blood, read-out: blood % ID/g): 0.93 %ID/g
tissue uptake at 4 h (blood, read-out: blood % ID/g): 0.3 %ID/g
tissue uptake at 6 h (blood, read-out: blood % ID/g): 0.53 %ID/g
tissue uptake at 24 h (blood, read-out: blood % ID/g): 0.009 %ID/g
tissue uptake at 8 h (blood, read-out: blood % ID/g): 0.11 %ID/g
tissue uptake at 12 h (blood, read-out: blood % ID/g): 0.015 %ID/g
tissue uptake at 1 h (brain, read-out: brain % ID/g): 1.28 %ID/g
tissue uptake at 2 h (brain, read-out: brain % ID/g): 1.25 %ID/g
tissue uptake at 4 h (brain, read-out: brain % ID/g): 0.63 %ID/g
tissue uptake at 6 h (brain, read-out: brain % ID/g): 0.22 %ID/g
tissue uptake at 24 h (brain, read-out: brain % ID/g): 0.002 %ID/g
tissue uptake at 8 h (brain, read-out: brain % ID/g): 0.14 %ID/g
tissue uptake at 12 h (brain, read-out: brain % ID/g): 0.01 %ID/g
tissue uptake at 1 h (eye, read-out: eye % ID/g): 0.51 %ID/g
tissue uptake at 2 h (eye, read-out: eye % ID/g): 0.5 %ID/g
tissue uptake at 4 h (eye, read-out: eye % ID/g): 0.21 %ID/g
tissue uptake at 6 h (eye, read-out: eye % ID/g): 0.19 %ID/g
tissue uptake at 24 h (eye, read-out: eye % ID/g): 0.008 %ID/g
tissue uptake at 8 h (eye, read-out: eye % ID/g): 0.06 %ID/g
tissue uptake at 12 h (eye, read-out: eye % ID/g): 0.01 %ID/g
tissue uptake at 1 h [1]: 3.1 %ID/g
tissue uptake at 2 h [1]: 2.57 %ID/g
tissue uptake at 4 h [1]: 1.19 %ID/g
tissue uptake at 6 h [1]: 1.05 %ID/g
tissue uptake at 8 h [1]: 0.36 %ID/g
tissue uptake at 12 h [1]: 0.05 %ID/g
tissue uptake at 24 h [1]: 0.01 %ID/g
tissue uptake at 1 h [2]: 8.15 %ID/g
tissue uptake at 2 h [2]: 6.17 %ID/g
tissue uptake at 4 h [2]: 2.51 %ID/g
tissue uptake at 6 h [2]: 1.07 %ID/g
tissue uptake at 24 h [2]: 0.04 %ID/g
tissue uptake at 8 h [2]: 0.42 %ID/g
tissue uptake at 12 h [2]: 0.08 %ID/g
tissue uptake at 1 h (liver, read-out: liver % ID/g): 4.95 %ID/g
tissue uptake at 2 h (liver, read-out: liver % ID/g): 3.16 %ID/g
tissue uptake at 4 h (liver, read-out: liver % ID/g): 1.52 %ID/g
tissue uptake at 6 h (liver, read-out: liver % ID/g): 0.74 %ID/g
tissue uptake at 24 h (liver, read-out: liver % ID/g): 0.19 %ID/g
tissue uptake at 8 h (liver, read-out: liver % ID/g): 0.63 %ID/g
tissue uptake at 12 h (liver, read-out: liver % ID/g): 0.2 %ID/g
tissue uptake at 1 h (lungs, read-out: lungs % ID/g): 5.35 %ID/g
tissue uptake at 2 h (lungs, read-out: lungs % ID/g): 5.56 %ID/g
tissue uptake at 4 h (lungs, read-out: lungs % ID/g): 2.63 %ID/g
tissue uptake at 6 h (lungs, read-out: lungs % ID/g): 0.93 %ID/g
tissue uptake at 8 h (lungs, read-out: lungs % ID/g): 0.43 %ID/g
tissue uptake at 12 h (lungs, read-out: lungs % ID/g): 0.04 %ID/g
tissue uptake at 24 h (lungs, read-out: lungs % ID/g): 0.02 %ID/g
tissue uptake at 1 h [3]: 1.04 %ID/g
tissue uptake at 2 h [3]: 6.86 %ID/g
tissue uptake at 4 h [3]: 0.41 %ID/g
tissue uptake at 6 h [3]: 0.12 %ID/g
tissue uptake at 24 h [3]: 0.002 %ID/g
tissue uptake at 8 h [3]: 0.07 %ID/g
tissue uptake at 12 h [3]: 0.008 %ID/g
tissue uptake at 1 h [4]: 2.86 %ID/g
tissue uptake at 2 h [4]: 2.13 %ID/g
tissue uptake at 4 h [4]: 0.83 %ID/g
tissue uptake at 6 h [4]: 0.4 %ID/g
tissue uptake at 8 h [4]: 0.14 %ID/g
tissue uptake at 12 h [4]: 0.08 %ID/g
tissue uptake at 24 h [4]: 0.01 %ID/g
tissue uptake at 1 h [5]: 0.71 %ID/g
tissue uptake at 2 h [5]: 0.85 %ID/g
tissue uptake at 4 h [5]: 0.28 %ID/g
tissue uptake at 6 h [5]: 0.61 %ID/g
tissue uptake at 24 h [5]: 0.009 %ID/g
tissue uptake at 8 h [5]: 0.13 %ID/g
tissue uptake at 12 h [5]: 0.02 %ID/g
tissue uptake at 1 h [6]: 2.54 %ID/g
tissue uptake at 2 h [6]: 2.02 %ID/g
tissue uptake at 4 h [6]: 0.62 %ID/g
tissue uptake at 6 h [6]: 0.33 %ID/g
tissue uptake at 8 h [6]: 0.14 %ID/g
tissue uptake at 12 h [6]: 0.05 %ID/g
tissue uptake at 24 h [6]: 0.09 %ID/g
tissue uptake at 1 h [7]: 2.38 %ID/g
tissue uptake at 2 h [7]: 3.03 %ID/g
tissue uptake at 4 h [7]: 1.23 %ID/g
tissue uptake at 6 h [7]: 2 ± 0.253 %ID/g
tissue uptake at 8 h [7]: 0.58 %ID/g
tissue uptake at 12 h [7]: 0.1 %ID/g
tissue uptake at 24 h [7]: 0.02 %ID/g
tissue uptake at 1 h [8]: 4.28 %ID/g
tissue uptake at 2 h [8]: 4.14 %ID/g
tissue uptake at 4 h [8]: 1.68 %ID/g
tissue uptake at 6 h [8]: 2.74 %ID/g
tissue uptake at 8 h [8]: 0.39 %ID/g
tissue uptake at 12 h [8]: 0.04 %ID/g
tissue uptake at 24 h [8]: 0.02 %ID/g
tissue uptake at 1 h (tumor, read-out: tumor % ID/g): 1.19 %ID/g
tissue uptake at 2 h (tumor, read-out: tumor % ID/g): 1.27 %ID/g
tissue uptake at 4 h (tumor, read-out: tumor % ID/g): 0.93 %ID/g
tissue uptake at 6 h (tumor, read-out: tumor % ID/g): 0.34 %ID/g
tissue uptake at 24 h (tumor, read-out: tumor % ID/g): 0.007 %ID/g
tissue uptake at 8 h (tumor, read-out: tumor % ID/g): 0.12 %ID/g
tissue uptake at 12 h (tumor, read-out: tumor % ID/g): 0.02 %ID/g
